pEC50: −log10 of the molar value. Values after ≈ are worked out from the molar mass of the structure shown. Where two headings read alike, the source gives them in different places.
Key:
SARS-CoV-2 = assay: microbe, parasite or virus in culture; assay type: cell-based; conditions: Severe acute respiratory syndrome coronavirus 2, Vero C1008; Vero E6 cells; reporter SARS-CoV-2 MOI of 0.1; luciferase at 24 h post-infection; 0.5% DMSO; read-out: antiviral EC50
[1] = Saturation solubility in buffers (shake flask method); conditions: 0.1 N HCl, 0.01 N HCl, pH 3.0 and 4.0 acid phthalate buffer, pH 4.5 and 5.1 acetate buffer
[2] = assay type: physicochemical
Experimental: Saturation solubility of niclosamide was studied in the solvents, to know the highest concentration of niclosamide that can be solubilized, as depicted in table 6.
Heating and stirring improved solubilization of niclosamide in polyethylene glycol. […] In further formulation studies, drug substance concentration >7% w/w was desired, so 65° C. of temperature was used for solubilization of API.

physchem = conditions: 25 °C, water
[3] = Drug-excipient compatibility study (related substances of binary mixtures); assay type: physicochemical
Experimental: Proposed drug to excipient ratio was selected based on the function of the excipient and maximum concentration to be used. Drug and excipient binary mixtures were prepared by uniform mixing. The blends were packed in clear glass vials and the compatibility was evaluated in closed conditions. In the closed-vial study, the dry mix samples were filled in vials with screw stopper fitting covered with parafilm and stored at 40° C./75% RH, 25° C./60% RH and 2° C.-8° C. storage condition up to 4 weeks. Samples at 40° C./75% RH and 25° C./60% RH were checked for physical description and analyzed for related substances, initially, at 2 weeks and at 4 weeks. Ratio of drug substance to excipients in blend for the compatibility study, are as follows: a) niclosamide:gelling agents/mucoadhesive agents was 1:15; b) niclosamide:solvents/co-solvents was 1:5; c) niclosamide:pH adjusting agents/neutralizing agents was 1:1; and d) niclosamide: preservatives/anti-oxidants was 1:0.5. Summary of physical description and related substances analysis of binary mixtures of API & excipients at initial and 40° C./75% RH-4 weeks condition are presented below in Table 8.
The impurities detected were as follows: Impurity-1 (5-chloro salicylic acid); Impurity-2 (2-chloro-4-nitro aniline); Impurity-3 (N-(2-chloro-4-nitrophenyl)-2-hydroxybenzamide); Impurity-4 (3,5-dichloro-N-(2-chloro-4-nitrophenyl)-2-hydroxybenzamide); and Impurity-5 (3-chloro-N-(2-chloro-4-nitrophenyl)-2-hydroxybenzamide).

human sperm = assay: Dose-dependent effect of niclosamide on sperm motility in fresh human semen; assay type: cell-based
Experimental: FIG. 1 is a graph depicting the dose dependent effect of niclosamide dissolved in DMSO, on sperm motility. Fresh human semen samples were mixed with the different concentrations of niclosamide in vitro, followed by analysis of sperm motility within 2 minutes. The x-axis depicts the different concentrations of niclosamide mixed with the semen sample. The x-axis, from Left to Right: the gray bar depicts an untreated semen sample, the blue bar depicts a vehicle control, and the eight pink bars depict the increasing concentrations of niclosamide tested. […] The y-axis depicts the percentage (%) inhibition in sperm motility of each semen sample treated with a concentration of niclosamide o normalized to the sperm motility of a control sample. Change in sperm motility relative to control treated sample is shown as mean +/−standard error of the mean (S.E.M.) for the aggregate of individual experiments.
Sperm motility is a functional measurement of the sperm themselves. Sperm may be sampled directly from semen or from washed sperm samples, and assessed for motility either manually or by CASA (Computer Assisted Sperm Analysis) (Chapter 59—Male Reproductive System. Systems Toxicologic Pathology. Dianne M. Creasy, Robert E. Chapin, in Haschek and Rousseaux's Handbook of Toxicologic Pathology (Third Edition), 2013; Amann R P et al. Computer-assisted sperm analysis (CASA): capabilities and potential developments. Theriogenology. 2014 Jan. 1; 81(1):5-17).
Sperm motility (expressed as %) may be evaluated in duplicate within 1 h of semen collection, by counting moving and nonmoving sperm in several microscopic fields. […] In preferred embodiments, only complete spermatozoa (head with tail) are included in such counts. Slow-moving sperm (class B+C) can be easily and accurately counted compared with rapidly moving (class A) sperm. A multi-button tally, preferably a digital one, is used to differentially count such motility (for additional detail, see Chapter 23: Standardized semen analysis and quality control management for multicenter male reproductive toxicology clinical trials, Sikka S. C. et al., in Bioenvironmental Issues Affecting Men's Reproductive and Sexual Health, 2018, the contents of which are incorporated herein by reference in their entirety).
After 2 minutes of incubation with the formulation, the semen samples were collected and analyzed for sperm motility. […] Data were collected within 2 minutes after mixing the formulation in gel form, with fresh semen, so the effects are instantaneous. As for timing, the gel may be applied 15-20 minutes prior to intercourse to allow gelling to fully occur. Furthermore, the gel may not be efficacious after residing in the vagina for longer than 1 hour.

[4] = 40° C./75% RH, 4 Weeks, closed vial

Question: With `O=C(Nc1ccc([N+](=O)[O-])cc1Cl)c1cc(Cl)ccc1O` [niclosamide] as the molecule, how does the pEC50 (SARS-CoV-2) read?
Answer: Its pEC50 is 6.82.

Question: What about the “solubility in studied buffers” value [1] of the same molecule?
Answer: The value was “insoluble”.

Question: And the maximum solubility [2]?
Answer: The maximum solubility was 5 % w/w.

Question: What about the Solubility (physchem) of the same molecule?
Answer: The Solubility was 5 µg/mL (≈ 15.3 µM).

Question: What about the Imp-3 [3, 4] of the same molecule?
Answer: The Imp-3 was 0.026%.

Question: What about the Imp-4 [3, 4] of the same molecule?
Answer: The Imp-4 was 0.012%.

Question: And the Imp-5 [3, 4]?
Answer: Its Imp-5 is 0.014%.

Question: What about the “Single Max Unk Imp” value [3, 4] of the same molecule?
Answer: Its value is 0.007%.

Question: What about the “Total Impurities” value [3, 4] of the same molecule?
Answer: Its value is 0.06%.

Question: What about the Imp-3 ([3]; Initial) of the same molecule?
Answer: The Imp-3 was 0.029%.

Question: And the Imp-4 ([3]; Initial)?
Answer: Its Imp-4 is 0.009%.

Question: And the “Single Max Unk Imp” value ([3]; Initial)?
Answer: The value was 0.010%.

Question: And the “Total Impurities” value ([3]; Initial)?
Answer: Its value is 0.05%.

Question: What about the “Minimum dose to see effect (inhibits sperm motility)” value (human sperm) of the same molecule?
Answer: The value was 4 mM.

Question: What about the “Minimum dose to see effect (inhibits sperm motility), Amount (w/w)” value (human sperm) of the same molecule?
Answer: The value was 0.13%.

Question: What about the inhibition at 10000 µM (human sperm; Sperm, 2 min, 10 mM niclosamide, fresh human semen, within 2 minutes, relative to control, read-out: percentage (%) inhibition in sperm motility) of the same molecule?
Answer: The inhibition at 10000 µM was 100%.

Question: And the “Concentration giving complete inhibition of sperm motility” value (human sperm; semen sample vs control sample, 2 minutes incubation)?
Answer: Its value is at least 10 mM.

Question: And the Solubility (pH 1.2)?
Answer: Its Solubility is “Nil”.

Question: And the Solubility (pH 2)?
Answer: Its Solubility is “Nil”.

Question: What about the Solubility (pH 3) of the same molecule?
Answer: The Solubility was “Nil”.

Question: What about the Solubility (pH 4) of the same molecule?
Answer: The Solubility was “Nil”.

Question: What about the Solubility (pH 4.5) of the same molecule?
Answer: The Solubility was “Nil”.

Question: And the Solubility (pH 5.1)?
Answer: The Solubility was “Nil”.

Source: US20230040597A1, “USE OF NICOLSAMIDE FORMULATIONS FOR ANTIVIRAL THERAPY” (priority 2020, published 2023)
